Results from US10907212B2, “Inhibitors of cell adhesion” (Regents of the University of Minnesota, priority 2016, dated 2021).
Where no end group is shown, it is not given here.

Columns and labels:
[1] = tested on: nectin 4 protein on NIH:OVCAR-5 cells; test: Effect of peptides on anti-Nectin-4 antibody binding to cells as determined by flow cytometry; assay type: cell-based, human; conditions: for IgG MFI: IgG control primary antibody; for nectin-4 antibody binding compared to untreated control cells (in words): flow cytometry; for Flow binding: summary table, Nectin-4 antibody binding relative to control = 100
Procedure: Confluent monolayers of cells were detached from 75 cm^2 tissue culture flasks using Accutase cell dissociation buffer (Innovative Cell Technologies, San Diego, Calif.), washed, and labeled with mouse IgG or mAbs against Nectin-4 or Nectin-1 (2.5 μg/10^6 cells) in Flow Buffer [phosphate buffered saline (PBS) containing 2.5% newborn calf serum and 0.02% sodium azide] for 30 min at 4° C.. Cells were washed and incubated with goat anti-mouse IgG F(ab′)2 (Jackson ImmunoResearch, West Grove, Pa.), then washed again and incubated with streptavidin-allophycocyanin conjugate (Jackson ImmunoResearch, West Grove, Pa.) for 30 min each. Cells were washed and fixed in Flow Buffer containing 1% formaldehyde and analyzed in the University of Minnesota Flow Cytometry Resource with a BD Accuri™ C6 flow cytometer (BD Biosciences, San Jose, Calif.) using the Accuri™ software.
Briefly, NIH:OVCAR-5 cells that natively express a moderate amount of nectin 4 protein were incubated for 30 minutes in 150 μg/mL of soluble peptide in DMSO. After incubation, the cells were washed, and then triple antibody stained using mouse anti-nectin 4 (or IgG control) primary antibody, biotinylated goat anti-mouse secondary antibody, and streptavidin APC tertiary antibody. Finally, utilizing the University of Minnesota flow core's Accuri C6 flow cytometer, the relative antibody binding affinity for control and peptide-treated samples was quantitated and compared. Data was collected for each of the 57 peptides generated.

[2] = tested on: ovarian cancer cell aggregation and spheroid formation; test: Spheroid assay for peptides (visual scale +1 to +5); assay type: cell-based, human; conditions: visual scale of +1 to +5; for Spheroid-48: 48 hrs, Control = 4; for Spheroid-24: 24 hrs, Control = 2
Procedure: Spheroids were formed from the NIH:OVCAR5 cell lines described above using the liquid overlay method. One milliliter of a single cell suspension was seeded at a concentration of 50,000 cells/ml in OptiMEM® media, into 24-well tissue culture plates coated with 0.5% Seakem agarose (in complete RPMI-1640). Plates were incubated at 37° C. in a humidified incubator with 5% CO2. At various time points up to 5 days, the plates were removed from the incubator and the spheroids were photographed with a Nikon CoolPix digital camera mounted on an Olympus CK2 inverted microscope with a 4× objective. The size of the spheroids was determined using the measure tool in Adobe Photoshop. The largest spheroids were quantified (20-90 spheroids/well), in a minimum of 8 wells, for a total of >300 spheroids per cell type.
The clinical relevance is that by blocking the formation of spheroids, the cells will be more sensitive to chemotherapy (which targets the single cells that proliferate more rapidly than spheroids).
The spheroid assay for peptides 1-30 were scored using a visual scale of +1 to +5. The controls were scored at +2 (24 hrs) and +4 (48 hrs). […] It may be harder to visually assess the size at 24 hours, since the spheroids are relatively small, but and perhaps some of the peptides are affecting cell division, and that is why the spheroids are smaller than the controls at 48 hours, but not 24 hrs (this can be easily assayed with an MTT assay).

[3] = Run One, 150 μg/mL peptide, 30 minutes, Control 1 = 15,015
[4] = Run One, 150 μg/mL peptide, 30 minutes, Control 1 = 1,670
[5] = Run One, antibody binding relative to Control 1 = 100.00
[6] = Run Two, 150 μg/mL peptide, 30 minutes, Control 2 = 49,491
[7] = Run Two, antibody binding relative to Control 2 = 100.00
[8] = Run Three, 150 μg/mL peptide, 30 minutes, Control 3 = 13,070.20
[9] = Run Three, antibody binding relative to Control 3 = 100.00
[10] = Run Five, 150 μg/mL peptide, 30 minutes, Control 5 = 17,768.90
[11] = Run Five, Control 5 = 2.142155332
[12] = Run Five, antibody binding relative to Control 5 = 100
[13] = Run Four, 150 μg/mL peptide, 30 minutes, Control 4 = 9,631.58
[14] = Run Four, Control 4 = 9.387504873
[15] = Run Four, antibody binding relative to Control 4 = 100

Substance | N4 MFI [1, 3] | IgG MFI [1, 4] | N4 MFI/IgG MFI ([1]; Run One, Control 1 = 8.99) | nectin-4 antibody binding, percent of control [1, 5] | nectin-4 antibody binding compared to untreated control cells (in words) ([1]; 150 μg/mL peptide) | Flow binding [1] [%] | Spheroid-48 [2] | Spheroid-24 [2] | also measured
YRGDSGEQVGQVAW-NH2 (listed as Homo sapiens) [Peptide 3] | 6,987 | 2,044 | 3.42 | 37.04 | reduction in nectin-4 antibody binding | 37 | 2 | – | –
EGSPAPSVTWDTEV-NH2 (listed as Homo sapiens) [Peptide 13] | 15,623 | 3,720 | 4.20 | 89.19 | – | – | 2 | 1 | –
WTRLDGPLPSGVRV-NH2 (listed as Homo sapiens) [Peptide 22] | – | – | – | – | increased nectin-4 antibody binding | 143 | 3 | 1 | N4 MFI [1, 6]: 70,336; N4 MFI/IgG MFI ([1]; Run Two, Control 2 = 9.46): 9.82; IgG MFI ([1]; Run Two, Control 2 = 5,233): 7,160; nectin-4 antibody binding, percent of control [1, 7]: 142.74
LPSLNPGPALEEGQ-NH2 (listed as Homo sapiens) [Peptide 11] | 15,211 | 2,268 | 6.71 | 96.99 | – | – | 3 | ~1? | –
TGNGIYINGRGHLV-NH2 (listed as Homo sapiens) [Peptide 29] | – | – | – | – | reduction in nectin-4 antibody binding | 35 | – | 3 | N4 MFI [1, 6]: 18,643; N4 MFI/IgG MFI ([1]; Run Two, Control 2 = 9.46): 6.04; IgG MFI ([1]; Run Two, Control 2 = 5,233): 3,087; nectin-4 antibody binding, percent of control [1, 7]: 35.15
RPSFTDGTIRLS-NH2 (listed as Homo sapiens) [Peptide 36] | – | – | – | – | – | – | 3 | – | N4 MFI [1, 8]: 13,633.18; N4 MFI/IgG MFI ([1]; Run Three, Control 3 = 9.83): 7.80; IgG MFI ([1]; Run Three, Control 3 = 1330): 1748; nectin-4 antibody binding, percent of control [1, 9]: 101.23
WTRLDGPLPSGVRVDGDT-NH2 (listed as Homo sapiens) [Peptide 28] | – | – | – | – | – | – | 2 | – | N4 MFI [1, 6]: 41,302; N4 MFI/IgG MFI ([1]; Run Two, Control 2 = 9.46): 10.83; IgG MFI ([1]; Run Two, Control 2 = 5,233): 3,815; nectin-4 antibody binding, percent of control [1, 7]: 84.70
CLSEGQPPPSYNWT-NH2 (listed as Homo sapiens) [Peptide 21] | – | – | – | – | – | – | 2 | 1 | N4 MFI [1, 6]: 34,351; N4 MFI/IgG MFI ([1]; Run Two, Control 2 = 9.46): 8.61; IgG MFI ([1]; Run Two, Control 2 = 5,233): 3,989; nectin-4 antibody binding, percent of control [1, 7]: 68.60
WTTLNGSLPKGVEAQNRT-NH2 (listed as Homo sapiens) [Peptide 57] | – | – | – | – | reduction in nectin-4 antibody binding | – | 3 | – | N4 MFI [1, 10]: 14,705.92; N4 MFI/IgG MFI [1, 11]: 1.874; IgG MFI ([1]; Run Five, Control 5 = 8,294.87): 7,848.89; nectin-4 antibody binding, percent of control [1, 12]: 72.38
EAQNRTLFFKGPINY-NH2 (listed as Homo sapiens) [Peptide 52] | – | – | – | – | increased nectin-4 antibody | 138 | 2 | 1 | N4 MFI [1, 10]: 20,692.13; N4 MFI/IgG MFI [1, 11]: 2.717; IgG MFI ([1]; Run Five, Control 5 = 8,294.87): 7,617.02; nectin-4 antibody binding, percent of control [1, 12]: 138
GQDDKVLVATCTSANG-NH2 (listed as Homo sapiens) [Peptide 41] | – | – | – | – | – | – | – | 3 | N4 MFI [1, 13]: 9,040.73; N4 MFI/IgG MFI [1, 14]: 8.302; IgG MFI ([1]; Run Four, Control 4 = 1,026): 1,089; nectin-4 antibody binding, percent of control [1, 15]: 92.4
PEVTIEGFDGNW-NH2 (listed as Homo sapiens) [Peptide 48] | – | – | – | – | – | – | 2 | 1 | N4 MFI [1, 13]: 10,595.37; N4 MFI/IgG MFI [1, 14]: 9.911; IgG MFI ([1]; Run Four, Control 4 = 1,026): 1069; nectin-4 antibody binding, percent of control [1, 15]: 110.7
VSPAYEGRVEQPPP-NH2 (listed as Homo sapiens) [Peptide 6] | 12,682 | 1,622 | 7.82 | 82.88 | – | – | 2 | 1 | –
AWARVDAGEGAQEL-NH2 (listed as Homo sapiens) [Peptide 4] | 8,687 | 2,199 | 3.95 | 48.62 | reduction in nectin-4 antibody binding | 49 | 2 | 1 | –
TCVVSHPGLLQDQR-NH2 (listed as Homo sapiens) [Peptide 17] | 20,511 | 8,686 | 2.36 | 88.61 | – | – | 2 | 1 | –
FANPLPSVKITQVTW-NH2 (listed as Homo sapiens) [Peptide 32] | – | – | – | – | reduction in nectin-4 antibody binding | 13 | 2 | – | N4 MFI [1, 8]: 2,542.31; N4 MFI/IgG MFI ([1]; Run Three, Control 3 = 9.83): 2.47; IgG MFI ([1]; Run Three, Control 3 = 1330): 1029; nectin-4 antibody binding, percent of control [1, 9]: 12.89
RVDGDTLGFPPLTT-NH2 (listed as Homo sapiens) [Peptide 23] | – | – | – | – | reduction in nectin-4 antibody binding | 35 | 2 | 1 | N4 MFI [1, 6]: 18,902; N4 MFI/IgG MFI ([1]; Run Two, Control 2 = 9.46): 5.66; IgG MFI ([1]; Run Two, Control 2 = 5,233): 3,342; nectin-4 antibody binding, percent of control [1, 7]: 35.16
